In US8552021B2, “Phosphoramidate derivatives of nucleosides” (Janssen Products, L.P., priority 2009, dated 2013):
Where two headings read alike, the source gives them in different places.

Assays:
Type in all cases: cell-based
[1] = test system: Huh-7; experiment: Cytotoxicity CC50 in Huh-7; conditions: Huh-7 cells
Excerpt: (§1) The in vitro antiviral activity against HCV of the compounds of formula I can be tested in a cellular HCV replicon system based on Lohmann et al. (1999) Science 285:110-113, with the further modifications described by Krieger et al. (2001) Journal of Virology 75: 4614-4624 (incorporated herein by reference), which is further exemplified in the examples section. This model, while not a complete infection model for HCV, is widely accepted as the most robust and efficient model of autonomous HCV RNA replication currently available. […] It will be appreciated that it is important to distinguish between compounds that specifically interfere with HCV functions from those that exert cytotoxic or cytostatic effects in the HCV replicon model, and as a consequence cause a decrease in HCV RNA or linked reporter enzyme concentration. Assays are known in the field for the evaluation of cellular cytotoxicity based for example on the activity of mitochondrial enzymes using fluorogenic redox dyes such as resazurin. Furthermore, cellular counter screens exist for the evaluation of non-selective inhibition of linked reporter gene activity, such as firefly luciferase. Appropriate cell types can be equipped by stable transfection with a luciferase reporter gene whose expression is dependent on a constitutively active gene promoter, and such cells can be used as a counter-screen to eliminate non-selective inhibitors.

[2] = test system: HCV type 1b replicon in Huh-7 luc/neo (Huh-Luc) cells; experiment: HCV replicon assay (Huh-Luc luciferase); conditions: three days incubation, luciferase activity, average where tested more than once, read-out: EC50 1b ET
Excerpt: The compounds of formula I are examined for activity in the inhibition of HCV RNA replication in a cellular assay. […] The cellular assay can be based on a bicistronic expression construct, as described by Lohmann et al. (1999) Science vol. 285 pp. 110-113 with modifications described by Krieger et al. (2001) Journal of Virology 75: 4614-4624, in a multi-target screening strategy. The Bartenschlager replicon assays are available commercially from ReBLikon GmbH in Mainz, Germany.
In essence, the method is as follows.
The assay utilized the stably transfected cell line Huh-7 luc/neo (hereafter referred to as Huh-Luc). This cell line harbors an RNA encoding a bicistronic expression construct comprising the wild type NS3—NS5B regions of HCV type 1b translated from an Internal Ribosome Entry Site (IRES) from encephalomyocarditis virus (EMCV), preceded by a reporter portion (FfL-luciferase), and a selectable marker portion (neo^R, neomycine phosphotransferase). The construct is bordered by 5′ and 3′ NTRs (non-translated regions) from HCV type lb. Continued culture of the replicon cells in the presence of G418 (neo^R) is dependent on the replication of the HCV RNA. The stably transfected replicon cells that express HCV RNA, which replicates autonomously and to high levels, encoding inter alia luciferase, are used for screening the antiviral compounds.
The replicon cells were plated in well plates in the presence of the test and control compounds, which were added in various concentrations. Following an incubation of three days, HCV replication was measured by assaying luciferase activity (using standard luciferase assay substrates and reagents and a Perkin Elmer ViewLux™ ultraHTS microplate imager). Replicon cells in the control cultures have high luciferase expression in the absence of any inhibitor. The inhibitory activity of the compound on luciferase activity was monitored on the Huh-Luc cells, enabling a dose-response curve for each test compound. EC50 values were then calculated, which value represents the amount of the compound required to decrease by 50% the level of detected luciferase activity, or more specifically, the ability of the genetically linked HCV replicon RNA to replicate. Where a compound of formula (I) was tested more than once in the replicon assay, the average of all test results is given in Table 1.

[3] = Cytotoxicity CC50 in Huh-7; conditions: human; Huh-7 cells
Excerpt: as §1

Row | Structure (SMILES) | CC50 [1] [µM] | EC50 [2] [µM] | CC50 [3] [µM] | EC50 ([2]; Hepatitis C virus, Huh-7, 72 h) [µM]
1 | CCCC(CCC)COC(=O)C(C)NP(=O)(OCC1(N=[N+]=[N-])OC(n2ccc(=O)[nH]c2=O)C(C)C1O)Oc1ccccc1 (mixture of isomers) [Compound I-3] | 30.7 | 8.06 | – | –
2 | CC(NP(=O)(OCC1(N=[N+]=[N-])OC(n2ccc(=O)[nH]c2=O)C(C)C1O)Oc1cccc2ccccc12)C(=O)OCc1ccccc1 (mixture of isomers) [Compound I-11] | > 100 | 13.8 | – | –
3 | CCCC(CCC)COC(=O)C(C)NP(=O)(OCC1(N=[N+]=[N-])OC(n2ccc(=O)[nH]c2=O)C(C)C1O)Oc1ccc(Cl)cc1 (mixture of isomers) [Compound I-15] | > 100 | 15.3 | – | –
4 | CCOC(=O)C(C)NP(=O)(OCC1(N=[N+]=[N-])OC(n2ccc(=O)[nH]c2=O)C(C)C1O)Oc1ccccc1 (mixture of isomers) [Compound I-16] | > 98.3 | 16.4 | – | –
5 | COCCOC(=O)C(C)NP(=O)(OCC1(N=[N+]=[N-])OC(n2ccc(=O)[nH]c2=O)C(C)C1O)Oc1ccccc1 (mixture of isomers) [Compound I-23] | > 98.3 | 32.1 | – | –
6 | CCOC(=O)C(C)NP(=O)(OCC1(N=[N+]=[N-])OC(n2ccc(=O)[nH]c2=O)C(C)C1O)Oc1cc(C)c(Cl)cc1C(C)C (mixture of isomers) [Compound I-24] | 55 | 37.7 | – | –
7 | CCOC(=O)[C@H](C)NP(=O)(OC[C@@]1(N=[N+]=[N-])O[C@@H](n2ccc(=O)[nH]c2=O)[C@@H](C)[C@@H]1O)Oc1ccccc1 (single isomer, unassigned) [Compound I-8] | > 98.3 | 12 | – | –
8 | CCOC(=O)[C@H](C)NP(=O)(OC[C@@]1(N=[N+]=[N-])O[C@@H](n2ccc(=O)[nH]c2=O)[C@@H](C)[C@@H]1O)Oc1ccccc1 (single isomer, unassigned) [Compound I-17] | > 98.3 | 17.3 | – | –
9 | CC(NP(=O)(OC[C@@]1(N=[N+]=[N-])O[C@@H](n2ccc(=O)[nH]c2=O)[C@@H](C)[C@@H]1O)Oc1ccccc1)C(=O)OCc1ccccc1 (stereo partly shown) [Compound I-1] | – | – | > 100 | 5.95
10 | CCCCOC(=O)C(C)NP(=O)(OC[C@@]1(N=[N+]=[N-])O[C@@H](n2ccc(=O)[nH]c2=O)[C@@H](C)[C@@H]1O)Oc1ccccc1 (stereo partly shown) [Compound I-4] | – | – | > 98.3 | 9.33
11 | CCCCCOC(=O)C(C)NP(=O)(OC[C@@]1(N=[N+]=[N-])O[C@@H](n2ccc(=O)[nH]c2=O)[C@@H](C)[C@@H]1O)Oc1ccccc1 (stereo partly shown) [Compound I-5] | – | – | > 98.3 | 9.48
12 | CC(NP(=O)(OC[C@@]1(N=[N+]=[N-])O[C@@H](n2ccc(=O)[nH]c2=O)[C@@H](C)[C@@H]1O)Oc1ccccc1)C(=O)OC1CCCC1 (stereo partly shown) [Compound I-6] | – | – | > 98.3 | 10.5
13 | CC(NP(=O)(OC[C@@]1(N=[N+]=[N-])O[C@@H](n2ccc(=O)[nH]c2=O)[C@@H](C)[C@@H]1O)Oc1ccccc1)C(=O)OC1CCCCC1 (stereo partly shown) [Compound I-7] | – | – | > 98.3 | 11.2
14 | CCCC(CCC)COC(=O)[C@H](C)NP(=O)(O)OC[C@@]1(N=[N+]=[N-])O[C@@H](n2ccc(=O)[nH]c2=O)[C@@H](C)[C@@H]1O [Compound I-9] | – | 15.8 | – | –
15 | CCCOC(=O)C(C)NP(=O)(OC[C@@]1(N=[N+]=[N-])O[C@@H](n2ccc(=O)[nH]c2=O)[C@@H](C)[C@@H]1O)Oc1ccccc1 (stereo partly shown) [Compound I-10] | – | – | > 98.3 | 12.9
16 | C[C@@H]1[C@H](n2ccc(=O)[nH]c2=O)O[C@@](COP(=O)(NC(C)(C)C(=O)OCc2ccccc2)Oc2ccccc2)(N=[N+]=[N-])[C@H]1O (stereo partly shown) [Compound I-12] | – | – | > 100 | 13.9

Row | Structure (SMILES) | CC50 [1] [µM] | EC50 [2] [µM] | CC50 [3] [µM] | EC50 ([2]; Hepatitis C virus, Huh-7, 72 h) [µM]
17 | CCCCOC(=O)C(C)(C)NP(=O)(OC[C@@]1(N=[N+]=[N-])O[C@@H](n2ccc(=O)[nH]c2=O)[C@@H](C)[C@@H]1O)Oc1ccccc1 (stereo partly shown) [Compound I-13] | – | – | 88.5 | 13.1
18 | CC(C)OC(=O)C(C)NP(=O)(OC[C@@]1(N=[N+]=[N-])O[C@@H](n2ccc(=O)[nH]c2=O)[C@@H](C)[C@@H]1O)Oc1ccccc1 (stereo partly shown) [Compound I-14] | – | – | > 100 | 14.9
19 | COC(=O)C(C)NP(=O)(OC[C@@]1(N=[N+]=[N-])O[C@@H](n2ccc(=O)[nH]c2=O)[C@@H](C)[C@@H]1O)Oc1ccccc1 (stereo partly shown) [Compound I-18] | – | – | > 98.3 | 27
20 | CCCCOC(=O)C(CC)NP(=O)(OC[C@@]1(N=[N+]=[N-])O[C@@H](n2ccc(=O)[nH]c2=O)[C@@H](C)[C@@H]1O)Oc1ccccc1 (stereo partly shown) [Compound I-20] | – | – | > 73.9 | 28
21 | CCC(NP(=O)(OC[C@@]1(N=[N+]=[N-])O[C@@H](n2ccc(=O)[nH]c2=O)[C@@H](C)[C@@H]1O)Oc1ccccc1)C(=O)OCc1ccccc1 (stereo partly shown) [Compound I-21] | – | – | 81.8 | 29.2
22 | C[C@@H]1[C@H](n2cc(I)c(=O)[nH]c2=O)O[C@@](COP(=O)(N[C@@H](C)C(=O)OCc2ccccc2)Oc2ccccc2)(N=[N+]=[N-])[C@H]1O (stereo partly shown) [Compound I-25] | – | – | > 98.3 | 57.3
23 | CCC(NP(=O)(OC[C@@]1(N=[N+]=[N-])O[C@@H](n2ccc(=O)[nH]c2=O)[C@@H](C)[C@@H]1O)Oc1ccccc1)C(=O)OC (stereo partly shown) [Compound I-26] | – | – | > 98.3 | 74.7
24 | CCC(NP(=O)(O)OC[C@@]1(N=[N+]=[N-])O[C@@H](n2ccc(=O)[nH]c2=O)[C@@H](C)[C@@H]1O)C(=O)OC(C)C (stereo partly shown) [Compound I-27] | – | – | – | > 98.4
25 | CC(C)OC(=O)C(C)(C)NP(=O)(OC[C@@]1(N=[N+]=[N-])O[C@@H](n2ccc(=O)[nH]c2=O)[C@@H](C)[C@@H]1O)Oc1ccccc1 (stereo partly shown) [Compound I-28] | – | – | > 98.4 | > 98.4
26 | CCC(NP(=O)(O)OC[C@@]1(N=[N+]=[N-])O[C@@H](n2ccc(=O)[nH]c2=O)[C@@H](C)[C@@H]1O)C(=O)OC (stereo partly shown) [Compound I-29] | – | – | > 98.4 | > 98.4
27 | CCCOC(=O)C(C)NP(=O)(O)OC[C@@]1(N=[N+]=[N-])O[C@@H](n2ccc(=O)[nH]c2=O)[C@@H](C)[C@@H]1O (stereo partly shown) [Compound I-30] | – | – | > 98.4 | > 98.4
28 | CC(NP(=O)(OC[C@@]1(N=[N+]=[N-])O[C@@H](n2ccc(=O)[nH]c2=O)[C@@H](C)[C@@H]1O)Oc1ccccc1)C(=O)OC(C)(C)C (stereo partly shown) [Compound I-31] | – | – | > 98.4 | > 98.4
29 | CCCCOC(=O)C(C)(C)NP(=O)(O)OC[C@@]1(N=[N+]=[N-])O[C@@H](n2ccc(=O)[nH]c2=O)[C@@H](C)[C@@H]1O [Compound I-32] | – | – | – | > 98.4
30 | CCC(NP(=O)(O)OC[C@@]1(N=[N+]=[N-])O[C@@H](n2ccc(=O)[nH]c2=O)[C@@H](C)[C@@H]1O)C(=O)OCc1ccccc1 (stereo partly shown) [Compound I-33] | – | – | – | > 98.4
31 | CCC(NP(=O)(OC[C@@]1(N=[N+]=[N-])O[C@@H](n2ccc(=O)[nH]c2=O)[C@@H](C)[C@@H]1O)Oc1ccccc1)C(=O)OC(C)C (stereo partly shown) [Compound I-34] | – | – | > 98.4 | > 98.4
